Results as given in ChEMBL document CHEMBL5143622, “Synthesis and biological evaluation of 7H-pyrrolo [2,3-d] pyrimidine derivatives as potential p21-activated kinase 4 (PAK4) inhibitors” (Bioorg Med Chem, 2022).

How the values were obtained:
MDA-MB-231 = assay: Antiproliferative activity against human MDA-MB-231 cells assessed as cell growth inhibition incubated for 72 hrs by cell titre glo luminescence assay; format: functional, cell-based; conditions: MDA-MB-231, 72 h
[1] = biological target: T1, Serine/threonine-protein kinase PAK 4 (Homo sapiens, UniProt O96013); assay: Inhibition of human PAK4 assessed as enzymatic activity incubated for 20 mins by filter binding method
Target sequence in this assay (O96013 whole entry): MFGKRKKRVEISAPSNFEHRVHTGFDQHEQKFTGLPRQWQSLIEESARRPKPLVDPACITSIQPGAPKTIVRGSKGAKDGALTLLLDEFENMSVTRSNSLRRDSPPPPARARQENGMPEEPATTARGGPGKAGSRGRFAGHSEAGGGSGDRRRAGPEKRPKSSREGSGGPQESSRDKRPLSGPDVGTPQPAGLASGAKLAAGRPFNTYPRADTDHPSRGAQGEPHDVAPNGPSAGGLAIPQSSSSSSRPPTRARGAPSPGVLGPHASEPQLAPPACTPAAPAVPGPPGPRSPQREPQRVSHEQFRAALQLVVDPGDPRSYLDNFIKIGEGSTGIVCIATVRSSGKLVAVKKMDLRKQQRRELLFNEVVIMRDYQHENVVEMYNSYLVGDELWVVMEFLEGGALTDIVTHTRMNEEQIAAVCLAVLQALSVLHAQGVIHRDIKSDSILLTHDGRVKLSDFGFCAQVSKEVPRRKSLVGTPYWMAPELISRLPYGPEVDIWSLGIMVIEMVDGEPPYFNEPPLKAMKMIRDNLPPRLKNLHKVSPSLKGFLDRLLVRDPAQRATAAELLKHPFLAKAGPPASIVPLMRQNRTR

MV4-11 [2] = assay: Antiproliferative activity against human MV4-11 cells assessed as cell growth inhibition incubated for 72 hrs by cell titre glo luminescence assay; format: functional, cell-based; conditions: MV4-11, 72 h
[3] = Cytotoxicity against HEK293T cells assessed as cell growth inhibition incubated for 72 hrs by cell titre glo luminescence assay; format: toxicity, cell-based, HEK-293T; conditions: human
[4] = biological target: T1, Serine/threonine-protein kinase PAK 4; assay: Inhibition of human PAK4 assessed as enzymatic activity at 2 uM incubated for 20 mins by filter binding method relative to control
Target sequence in this assay (O96013 whole entry, looked up): as the sequence (O96013 whole entry) above

MV4-11 [5] = assay: Induction of cell cycle arrest in human MV4-11 cells assessed as accumulation at G0/G1 phase at 5 nM incubated for 24 hrs by propidium iodide staining based flow cytometry analysis (reference value: 66.79 %); format: functional
MV4-11 [6] = assay: Induction of cell cycle arrest in human MV4-11 cells assessed as accumulation at S phase at 5 nM incubated for 24 hrs by propidium iodide staining based flow cytometry analysis (reference value: 25.75 %); format: functional
MV4-11 [7] = assay: Induction of cell cycle arrest in human MV4-11 cells assessed as accumulation at G2/M phase at 5 nM incubated for 24 hrs by propidium iodide staining based flow cytometry analysis (reference value: 7.46 %); format: functional
MV4-11 [8] = assay: Induction of cell cycle arrest in human MV4-11 cells assessed as accumulation at G0/G1 phase at 10 nM incubated for 24 hrs by propidium iodide staining based flow cytometry analysis (reference value: 66.79 %); format: functional
MV4-11 [9] = assay: Induction of cell cycle arrest in human MV4-11 cells assessed as accumulation at S phase at 10 nM incubated for 24 hrs by propidium iodide staining based flow cytometry analysis (reference value: 25.75 %); format: functional
MV4-11 [10] = assay: Induction of cell cycle arrest in human MV4-11 cells assessed as accumulation at G2/M phase at 10 nM incubated for 24 hrs by propidium iodide staining based flow cytometry analysis (reference value: 7.46 %); format: functional
MV4-11 [11] = assay: Induction of cell cycle arrest in human MV4-11 cells assessed as accumulation at G0/G1 phase at 50 nM incubated for 24 hrs by propidium iodide staining based flow cytometry analysis (reference value: 66.79 %); format: functional
MV4-11 [12] = assay: Induction of cell cycle arrest in human MV4-11 cells assessed as accumulation at S phase at 50 nM incubated for 24 hrs by propidium iodide staining based flow cytometry analysis (reference value: 25.75 %); format: functional
MV4-11 [13] = assay: Induction of cell cycle arrest in human MV4-11 cells assessed as accumulation at G2/M phase at 50 nM incubated for 24 hrs by propidium iodide staining based flow cytometry analysis (reference value: 7.46 %); format: functional
MV4-11 [14] = assay: Induction of apoptosis in human MV4-11 cells assessed as necrotic cells at 10 nM incubated for 48 hrs by annexin V-FITC and propidium iodide staining based flow cytometry analysis (reference value: 0.013 %); format: functional
MV4-11 [15] = assay: Induction of apoptosis in human MV4-11 cells assessed as viable cells at 10 nM incubated for 48 hrs by annexin V-FITC and propidium iodide staining based flow cytometry analysis (reference value: 95.6 %); format: functional; conditions: read-out: Activity
MV4-11 [16] = assay: Induction of apoptosis in human MV4-11 cells assessed as early apoptotic cells at 10 nM incubated for 48 hrs by annexin V-FITC and propidium iodide staining based flow cytometry analysis (reference value: 3.71 %); format: functional
MV4-11 [17] = assay: Induction of apoptosis in human MV4-11 cells assessed as late apoptotic cells at 10 nM incubated for 48 hrs by annexin V-FITC and propidium iodide staining based flow cytometry analysis (reference value: 1.67 %); format: functional
MV4-11 [18] = assay: Induction of apoptosis in human MV4-11 cells assessed as viable cells at 50 nM incubated for 48 hrs by annexin V-FITC and propidium iodide staining based flow cytometry analysis (reference value: 95.6 %); format: functional; conditions: read-out: Activity
MV4-11 [19] = assay: Induction of apoptosis in human MV4-11 cells assessed as early apoptotic cells at 50 nM incubated for 48 hrs by annexin V-FITC and propidium iodide staining based flow cytometry analysis (reference value: 3.71 %); format: functional
MV4-11 [20] = assay: Induction of apoptosis in human MV4-11 cells assessed as late apoptotic cells at 50 nM incubated for 48 hrs by annexin V-FITC and propidium iodide staining based flow cytometry analysis (reference value: 1.67 %); format: functional
MV4-11 [21] = assay: Induction of apoptosis in human MV4-11 cells assessed as necrotic cells at 50 nM incubated for 48 hrs by annexin V-FITC and propidium iodide staining based flow cytometry analysis (reference value: 0.013 %); format: functional
MV4-11 [22] = assay: Induction of apoptosis in human MV4-11 cells assessed as viable cells at 250 nM incubated for 48 hrs by annexin V-FITC and propidium iodide staining based flow cytometry analysis (reference value: 95.6 %); format: functional; conditions: read-out: Activity
MV4-11 [23] = assay: Induction of apoptosis in human MV4-11 cells assessed as early apoptotic cells at 250 nM incubated for 48 hrs by annexin V-FITC and propidium iodide staining based flow cytometry analysis (reference value: 3.71 %); format: functional
MV4-11 [24] = assay: Induction of apoptosis in human MV4-11 cells assessed as late apoptotic cells at 250 nM incubated for 48 hrs by annexin V-FITC and propidium iodide staining based flow cytometry analysis (reference value: 1.67 %); format: functional
MV4-11 [25] = assay: Induction of apoptosis in human MV4-11 cells assessed as necrotic cells at 250 nM incubated for 48 hrs by annexin V-FITC and propidium iodide staining based flow cytometry analysis (reference value: 0.013 %); format: functional
[26] = biological target: T1, Serine/threonine-protein kinase PAK 4; assay: Inhibition of PAK4 phosphorylation at Ser474 residue in human MV4-11 cells at 50 to 800 nM incubated for 24 hrs by Western blot analysis; format: cell-based; conditions: dose 50-800 nM, DDE = dose-dependent effect
Target sequence in this assay (O96013 whole entry, looked up): as the sequence (O96013 whole entry) above

[27] = biological target: T1, Serine/threonine-protein kinase PAK 4; assay: Inhibition of human PAK4 assessed as inhibition constant
Target sequence in this assay (O96013 whole entry): as above

N[C@H]1CC[C@H](Nc2nc(Nc3cccc(Cl)c3)nc3[nH]ccc23)CC1
IC50 (MDA-MB-231): 2480 nM | IC50 [1]: 20.2 nM | IC50 (MV4-11 [2]): 38.3 nM | IC50 at 72 h [3]: 7390 nM

COc1cccc(Nc2nc(NC3CCNCC3)c3cc[nH]c3n2)c1
inhibition [4]: 46.2%

Nc1ccc(/C=C/C(=O)NCc2cc3cc(-c4ccc(C(=O)N5CCC(F)(F)CC5)cc4)cc(-c4ccc(F)cc4)c3o2)cn1 [PADNARSERTIB]
IC50 [1]: 100 nM

N[C@H]1CC[C@@H](Nc2nc(Nc3cccc(Cl)c3)nc3[nH]ccc23)CC1
IC50 (MDA-MB-231): 825 nM | IC50 [1]: 2.7 nM | IC50 (MV4-11 [2]): 7.8 nM | IC50 at 72 h [3]: > 10000 nM | Activity (MV4-11 [5]): 78.7% | Activity (MV4-11 [6]): 17.34% | Activity (MV4-11 [7]): 3.97% | Activity (MV4-11 [8]): 88.81% | Activity (MV4-11 [9]): 8.71% | Activity (MV4-11 [10]): 2.48% | Activity (MV4-11 [11]): 90.98% | Activity (MV4-11 [12]): 7.75% | Activity (MV4-11 [13]): 1.27% | Activity (MV4-11 [14]): 0.032% | viability at 0.01 µM (MV4-11 [15]): 92.7% | Activity (MV4-11 [16]): 4.28% | Activity (MV4-11 [17]): 2.99% | viability at 0.05 µM (MV4-11 [18]): 78.4% | Activity (MV4-11 [19]): 11.9% | Activity (MV4-11 [20]): 9.71% | Activity (MV4-11 [21]): 0.043% | viability at 0.25 µM (MV4-11 [22]): 72.8% | Activity (MV4-11 [23]): 14.5% | Activity (MV4-11 [24]): 12.5% | Activity (MV4-11 [25]): 0.087% | inhibition [26]: Dde

N[C@H]1CCCN(c2nc(Nc3cccc(Cl)c3)nc3[nH]ccc23)C1
IC50 [1]: 229 nM | inhibition [4]: 38.3%

NCC1CCCN(c2nc(Nc3cccc(Cl)c3)nc3[nH]ccc23)C1 (stereo not given)
inhibition [4]: 61%

Clc1cccc(Nc2nc(NCC3CCNCC3)c3cc[nH]c3n2)c1
inhibition [4]: 25.9%

OCC(O)CNc1nc(Nc2ccccc2)nc2[nH]ccc12 (stereo not given)
inhibition [4]: 82.4%

N[C@@H]1CCCN(c2nc(Nc3cccc(Cl)c3)nc3[nH]ccc23)C1
IC50 [1]: 229 nM | inhibition [4]: 72.5%

CC1(N)CCN(c2nc(Nc3cccc(Cl)c3)nc3[nH]ccc23)CC1
inhibition [4]: 35.5%

COCCNc1nc2ccc(C#CC3(O)CCCCC3)cc2n1-c1ncnc(N)n1
Ki [27]: 3.3 nM

C[C@@H]1CN(C(=O)c2nc(Nc3cc(C4CC4)[nH]n3)c3cc(Cl)ccc3n2)CCN1
IC50 [1]: 9 nM

c1ccc(Nc2nc(N3CCNCC3)c3cc[nH]c3n2)cc1
inhibition [4]: 89.6%

OCCNc1nc(Nc2ccccc2)nc2[nH]ccc12
inhibition [4]: 86.9%

c1ccc(Nc2nc(N3CCOCC3)c3cc[nH]c3n2)cc1
inhibition [4]: 91.6%

Clc1cccc(Nc2nc(NC3CCNCC3)c3cc[nH]c3n2)c1
IC50 [1]: 50.3 nM

Fc1cccc(Nc2nc(NC3CCNCC3)c3cc[nH]c3n2)c1
IC50 [1]: 165 nM | inhibition [4]: 38.3%

c1ccc(Nc2nc(NC3CCNCC3)c3cc[nH]c3n2)cc1
IC50 [1]: 2940 nM | inhibition [4]: 64.2%
